Paper PMC3914206

How the values were obtained:
Assay type in all cases: binding
Design in all cases: KINOMEscan: ABL1(F317L)-phosphorylated / KINOMEscan: ABL1(H396P)-nonphosphorylated / KINOMEscan: ABL1(H396P)-phosphorylated / KINOMEscan: ABL1(M351T)-phosphorylated / KINOMEscan: ABL1(T315I)-phosphorylated / KINOMEscan: ABL1-nonphosphorylated / KINOMEscan: ABL1-phosphorylated / KINOMEscan: ACVR2A / KINOMEscan: ACVR2B / KINOMEscan: ADCK3 / KINOMEscan: ADCK4 / KINOMEscan: AKT1 / KINOMEscan: AKT3 / KINOMEscan: ALK / KINOMEscan: ARK5 / KINOMEscan: AURKA / KINOMEscan: AURKC / KINOMEscan: BIKE / KINOMEscan: BMPR1A / KINOMEscan: BMPR1B / KINOMEscan: BMX / KINOMEscan: BRK / KINOMEscan: BRSK1 / KINOMEscan: BRSK2 / KINOMEscan: CAMK1 / KINOMEscan: CAMK1D / KINOMEscan: CAMK1G / KINOMEscan: CAMK2A / KINOMEscan: CAMK2B / KINOMEscan: AAK1 / KINOMEscan: CAMK2D / KINOMEscan: CAMK2G / KINOMEscan: ABL1(F317I)-nonphosphorylated / KINOMEscan: ABL1(F317I)-phosphorylated / KINOMEscan: ABL1(F317L)-nonphosphorylated: unit: % Ctrl
Conditions in all cases: Compound Concentration 10 µM
[1] = molecular target: T1, panel of 442 kinases (Homo sapiens, UniProt P42338)
T1 construct: purchased KINOMEscan
T1 sequence (P42338 whole entry): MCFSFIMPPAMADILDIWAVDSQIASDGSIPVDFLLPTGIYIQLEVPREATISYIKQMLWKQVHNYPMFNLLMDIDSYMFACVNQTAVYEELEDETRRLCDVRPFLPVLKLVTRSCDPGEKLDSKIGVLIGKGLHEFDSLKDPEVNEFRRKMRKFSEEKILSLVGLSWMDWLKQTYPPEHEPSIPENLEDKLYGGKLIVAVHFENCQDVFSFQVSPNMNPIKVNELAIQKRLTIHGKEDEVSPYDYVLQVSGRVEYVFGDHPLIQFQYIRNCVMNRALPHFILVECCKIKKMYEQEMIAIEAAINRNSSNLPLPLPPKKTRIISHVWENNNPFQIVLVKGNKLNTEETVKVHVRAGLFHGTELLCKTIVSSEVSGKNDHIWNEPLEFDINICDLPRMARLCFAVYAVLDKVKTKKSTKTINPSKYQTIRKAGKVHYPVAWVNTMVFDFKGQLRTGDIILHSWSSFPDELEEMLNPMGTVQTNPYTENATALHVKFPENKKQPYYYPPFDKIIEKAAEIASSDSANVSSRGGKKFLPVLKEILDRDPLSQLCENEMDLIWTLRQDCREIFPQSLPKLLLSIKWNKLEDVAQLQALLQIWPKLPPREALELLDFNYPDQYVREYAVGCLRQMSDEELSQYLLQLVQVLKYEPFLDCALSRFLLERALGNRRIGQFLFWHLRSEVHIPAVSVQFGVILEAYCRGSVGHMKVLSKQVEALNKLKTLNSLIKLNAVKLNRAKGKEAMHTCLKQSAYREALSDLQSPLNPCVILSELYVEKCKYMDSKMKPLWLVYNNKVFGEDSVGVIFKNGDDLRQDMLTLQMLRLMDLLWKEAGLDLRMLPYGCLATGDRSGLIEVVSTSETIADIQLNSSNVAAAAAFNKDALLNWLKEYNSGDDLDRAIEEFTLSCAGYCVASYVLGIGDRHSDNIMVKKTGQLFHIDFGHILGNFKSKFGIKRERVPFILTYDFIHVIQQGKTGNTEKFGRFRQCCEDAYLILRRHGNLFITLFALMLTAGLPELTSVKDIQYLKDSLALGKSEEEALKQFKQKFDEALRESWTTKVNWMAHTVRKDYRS
Text: (§1) We assessed the selectivity of members of this scaffold using the KINOMEscan methodology across a near comprehensive panel of 442 kinases [[18,27]].

[2] = molecular target: T2, panel of 442 kinases (Homo sapiens, UniProt O75460)
T2 construct: purchased KINOMEscan
T2 sequence (O75460 19-977): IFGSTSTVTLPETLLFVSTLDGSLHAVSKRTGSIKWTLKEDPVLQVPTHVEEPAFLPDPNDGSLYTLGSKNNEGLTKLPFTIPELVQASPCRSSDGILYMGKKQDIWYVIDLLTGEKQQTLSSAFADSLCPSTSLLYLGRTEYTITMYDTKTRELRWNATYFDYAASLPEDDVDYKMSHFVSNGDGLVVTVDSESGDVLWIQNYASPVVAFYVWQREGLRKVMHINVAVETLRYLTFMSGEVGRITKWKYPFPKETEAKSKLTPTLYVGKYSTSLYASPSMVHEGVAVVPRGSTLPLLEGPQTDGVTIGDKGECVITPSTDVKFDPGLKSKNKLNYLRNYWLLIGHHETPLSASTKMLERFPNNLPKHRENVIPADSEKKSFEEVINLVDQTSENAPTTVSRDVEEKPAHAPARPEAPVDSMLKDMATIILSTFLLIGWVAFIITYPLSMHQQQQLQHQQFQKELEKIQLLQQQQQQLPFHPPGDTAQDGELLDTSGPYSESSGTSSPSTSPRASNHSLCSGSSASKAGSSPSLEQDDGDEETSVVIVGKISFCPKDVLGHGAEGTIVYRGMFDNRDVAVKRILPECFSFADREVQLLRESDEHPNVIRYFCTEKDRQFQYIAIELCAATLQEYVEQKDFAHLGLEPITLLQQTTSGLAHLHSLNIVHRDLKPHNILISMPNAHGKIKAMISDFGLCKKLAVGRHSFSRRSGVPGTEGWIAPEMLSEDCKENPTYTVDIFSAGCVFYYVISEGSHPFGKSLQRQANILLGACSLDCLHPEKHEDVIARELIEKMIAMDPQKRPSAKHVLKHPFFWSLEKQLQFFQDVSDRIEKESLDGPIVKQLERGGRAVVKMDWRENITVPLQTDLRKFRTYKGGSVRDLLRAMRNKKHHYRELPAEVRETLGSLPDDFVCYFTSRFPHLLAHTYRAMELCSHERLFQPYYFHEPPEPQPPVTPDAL
Text: as §1

[3] = molecular target: T3, panel of 442 kinases (Homo sapiens, UniProt Q2M2I8)
T3 construct: purchased KINOMEscan
T3 sequence (Q2M2I8 whole entry): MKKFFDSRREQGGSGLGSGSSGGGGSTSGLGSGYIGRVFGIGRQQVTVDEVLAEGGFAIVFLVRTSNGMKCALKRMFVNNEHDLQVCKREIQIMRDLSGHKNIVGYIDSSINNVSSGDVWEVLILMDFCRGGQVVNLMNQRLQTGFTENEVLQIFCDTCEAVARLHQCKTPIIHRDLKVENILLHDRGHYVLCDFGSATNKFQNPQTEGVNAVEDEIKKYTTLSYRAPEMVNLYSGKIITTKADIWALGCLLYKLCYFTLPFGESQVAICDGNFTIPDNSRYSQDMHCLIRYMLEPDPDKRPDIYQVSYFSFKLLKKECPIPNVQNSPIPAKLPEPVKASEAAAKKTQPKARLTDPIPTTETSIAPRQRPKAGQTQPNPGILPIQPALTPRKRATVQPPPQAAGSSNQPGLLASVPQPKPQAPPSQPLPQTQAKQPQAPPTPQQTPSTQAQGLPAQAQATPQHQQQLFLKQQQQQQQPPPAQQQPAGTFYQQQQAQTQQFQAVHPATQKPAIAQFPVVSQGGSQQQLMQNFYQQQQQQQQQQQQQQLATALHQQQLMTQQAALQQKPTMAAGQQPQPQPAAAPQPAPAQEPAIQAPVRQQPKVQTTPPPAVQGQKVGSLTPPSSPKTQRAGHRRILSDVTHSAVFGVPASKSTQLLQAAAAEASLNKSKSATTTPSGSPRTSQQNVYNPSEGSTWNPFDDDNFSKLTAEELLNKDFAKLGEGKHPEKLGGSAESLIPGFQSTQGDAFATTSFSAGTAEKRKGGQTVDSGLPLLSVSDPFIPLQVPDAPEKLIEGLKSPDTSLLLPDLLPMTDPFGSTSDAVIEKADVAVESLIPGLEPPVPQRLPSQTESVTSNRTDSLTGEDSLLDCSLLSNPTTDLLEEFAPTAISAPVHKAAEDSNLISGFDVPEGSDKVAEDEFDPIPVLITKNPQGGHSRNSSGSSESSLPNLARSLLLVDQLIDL
Text: as §1

[4] = molecular target: T4, panel of 442 kinases (Homo sapiens, UniProt Q04912)
T4 construct: purchased KINOMEscan
T4 sequence (Q04912 25-1400): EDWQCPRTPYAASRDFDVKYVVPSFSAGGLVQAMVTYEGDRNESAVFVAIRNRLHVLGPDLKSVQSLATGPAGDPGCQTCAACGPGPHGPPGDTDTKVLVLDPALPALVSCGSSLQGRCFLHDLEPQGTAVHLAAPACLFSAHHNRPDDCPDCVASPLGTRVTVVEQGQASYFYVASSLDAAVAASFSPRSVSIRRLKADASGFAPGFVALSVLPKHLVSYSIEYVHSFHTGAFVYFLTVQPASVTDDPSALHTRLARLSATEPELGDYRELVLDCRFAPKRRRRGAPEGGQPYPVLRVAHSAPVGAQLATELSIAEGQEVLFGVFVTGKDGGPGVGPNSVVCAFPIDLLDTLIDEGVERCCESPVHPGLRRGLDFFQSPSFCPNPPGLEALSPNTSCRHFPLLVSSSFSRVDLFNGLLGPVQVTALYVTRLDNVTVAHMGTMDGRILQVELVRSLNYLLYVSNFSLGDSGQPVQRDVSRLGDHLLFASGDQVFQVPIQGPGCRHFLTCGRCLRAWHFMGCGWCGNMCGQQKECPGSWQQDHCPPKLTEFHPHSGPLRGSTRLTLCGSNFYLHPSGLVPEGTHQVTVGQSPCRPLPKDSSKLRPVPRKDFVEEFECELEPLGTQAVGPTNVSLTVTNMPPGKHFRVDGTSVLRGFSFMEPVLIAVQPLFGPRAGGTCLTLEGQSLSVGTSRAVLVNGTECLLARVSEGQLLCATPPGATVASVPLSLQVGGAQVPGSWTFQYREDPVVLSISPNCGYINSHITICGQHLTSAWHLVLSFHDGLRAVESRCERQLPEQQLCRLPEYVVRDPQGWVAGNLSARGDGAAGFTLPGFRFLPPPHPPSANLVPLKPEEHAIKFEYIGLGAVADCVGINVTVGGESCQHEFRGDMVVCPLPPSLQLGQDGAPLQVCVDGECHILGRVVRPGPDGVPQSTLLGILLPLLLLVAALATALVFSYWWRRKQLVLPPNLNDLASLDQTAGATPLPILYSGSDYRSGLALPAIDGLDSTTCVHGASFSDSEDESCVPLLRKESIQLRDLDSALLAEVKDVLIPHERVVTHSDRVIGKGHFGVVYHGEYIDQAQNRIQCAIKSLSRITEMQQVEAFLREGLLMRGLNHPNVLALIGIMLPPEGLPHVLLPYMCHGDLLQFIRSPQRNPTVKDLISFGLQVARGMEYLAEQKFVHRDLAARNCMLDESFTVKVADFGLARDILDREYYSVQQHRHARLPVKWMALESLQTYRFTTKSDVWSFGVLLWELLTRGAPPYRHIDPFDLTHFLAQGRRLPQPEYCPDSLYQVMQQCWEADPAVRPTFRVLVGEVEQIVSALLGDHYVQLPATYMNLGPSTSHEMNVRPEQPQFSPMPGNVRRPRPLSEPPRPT
Text: as §1

SMILES	KINOMEscan: PIK3CB [1]	KINOMEscan: ERN1 [2]	KINOMEscan: AAK1 [3]	KINOMEscan: MST1R [4]
CCOc1cc(C(=O)N2CCC(N3CCN(C)CC3)CC2)ccc1Nc1ncc2c(n1)N(C1CCCC1)c1ccccc1C(=O)N2C [Compound 26]	100	87	100	100
COc1cc(C(=O)N2CCC(N3CCN(C)CC3)CC2)ccc1Nc1ncc2c(n1)N(C1CCCC1)c1ccccc1C(=O)N2C [Compound 25, 11-cyclopentyl-2-((2-methoxy-4-(4-(4-methylpiperazin-1-yl)piperidine-1-carbonyl)phenyl)amino)-5-methyl-5H-benzo[e]pyrimido[5,4-b][1,4]diazepin-6(11H)-one]	87	96	89	100
COc1cc(C(=O)N2CCC(N3CCN(C)CC3)CC2)ccc1Nc1ncc2c(n1)N1CCc3cccc(c31)C(=O)N2C [Compound 24]	71			
COc1cc(C(=O)N2CCC(N3CCN(C)CC3)CC2)ccc1Nc1ncc2c(n1)N(C)c1ccccc1C(=O)N2C [15 (LRRK2-IN-1)]	96	59	84	98
